Legend:
ΔF508-CFTR [1] = biological target: T1, ΔF508-CFTR (Homo sapiens, UniProt P13569, DEL508-508); test: CFTR cell surface levels using HRP-tagged ΔF508-CFTR expressing CFBE cells, intrinsic corrector capacity; format: cell-based; design: % Activation: concentration or dose not given beside the values
T1 construct: host or cells: CFBE41o-, doxycycline-inducible
In short: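 Surface ΔF508-CFTR was measured as HRP chemiluminescence from an extracellular-loop-4 tag, expressed as percent activity between DMSO and a […] corrector control.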

ΔF508-CFTR [2] = biological target: T1, ΔF508-CFTR; test: CFTR cell surface levels using HRP-tagged ΔF508-CFTR expressing CFBE cells, in the presence of a co-corrector; format: cell-based
In short: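 Chemiluminescent read-out of surface HRP (15 min, dark) after PBS washes. Activity is normalized as 100×(sample−DMSO)/(3 μM co-corrector alone−DMSO).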

[3] = HRP-tagged ΔF508-CFTR expressing CFBE41o- cells, compound alone (intrinsic corrector capacity), 20 hours at 33° C.
[4] = HRP-tagged ΔF508-CFTR expressing CFBE41o- cells, compound alone (intrinsic corrector capacity), 20 hours at 33° C., read-out: EC50
[5] = HRP-tagged ΔF508-CFTR CFBE cells, in the presence of 3 μM co-corrector
[6] = HRP-tagged ΔF508-CFTR CFBE cells, in the presence of 3 μM co-corrector, read-out: EC50

T1 sequence (P13569 with tags, fused parts or gaps DEL508-508): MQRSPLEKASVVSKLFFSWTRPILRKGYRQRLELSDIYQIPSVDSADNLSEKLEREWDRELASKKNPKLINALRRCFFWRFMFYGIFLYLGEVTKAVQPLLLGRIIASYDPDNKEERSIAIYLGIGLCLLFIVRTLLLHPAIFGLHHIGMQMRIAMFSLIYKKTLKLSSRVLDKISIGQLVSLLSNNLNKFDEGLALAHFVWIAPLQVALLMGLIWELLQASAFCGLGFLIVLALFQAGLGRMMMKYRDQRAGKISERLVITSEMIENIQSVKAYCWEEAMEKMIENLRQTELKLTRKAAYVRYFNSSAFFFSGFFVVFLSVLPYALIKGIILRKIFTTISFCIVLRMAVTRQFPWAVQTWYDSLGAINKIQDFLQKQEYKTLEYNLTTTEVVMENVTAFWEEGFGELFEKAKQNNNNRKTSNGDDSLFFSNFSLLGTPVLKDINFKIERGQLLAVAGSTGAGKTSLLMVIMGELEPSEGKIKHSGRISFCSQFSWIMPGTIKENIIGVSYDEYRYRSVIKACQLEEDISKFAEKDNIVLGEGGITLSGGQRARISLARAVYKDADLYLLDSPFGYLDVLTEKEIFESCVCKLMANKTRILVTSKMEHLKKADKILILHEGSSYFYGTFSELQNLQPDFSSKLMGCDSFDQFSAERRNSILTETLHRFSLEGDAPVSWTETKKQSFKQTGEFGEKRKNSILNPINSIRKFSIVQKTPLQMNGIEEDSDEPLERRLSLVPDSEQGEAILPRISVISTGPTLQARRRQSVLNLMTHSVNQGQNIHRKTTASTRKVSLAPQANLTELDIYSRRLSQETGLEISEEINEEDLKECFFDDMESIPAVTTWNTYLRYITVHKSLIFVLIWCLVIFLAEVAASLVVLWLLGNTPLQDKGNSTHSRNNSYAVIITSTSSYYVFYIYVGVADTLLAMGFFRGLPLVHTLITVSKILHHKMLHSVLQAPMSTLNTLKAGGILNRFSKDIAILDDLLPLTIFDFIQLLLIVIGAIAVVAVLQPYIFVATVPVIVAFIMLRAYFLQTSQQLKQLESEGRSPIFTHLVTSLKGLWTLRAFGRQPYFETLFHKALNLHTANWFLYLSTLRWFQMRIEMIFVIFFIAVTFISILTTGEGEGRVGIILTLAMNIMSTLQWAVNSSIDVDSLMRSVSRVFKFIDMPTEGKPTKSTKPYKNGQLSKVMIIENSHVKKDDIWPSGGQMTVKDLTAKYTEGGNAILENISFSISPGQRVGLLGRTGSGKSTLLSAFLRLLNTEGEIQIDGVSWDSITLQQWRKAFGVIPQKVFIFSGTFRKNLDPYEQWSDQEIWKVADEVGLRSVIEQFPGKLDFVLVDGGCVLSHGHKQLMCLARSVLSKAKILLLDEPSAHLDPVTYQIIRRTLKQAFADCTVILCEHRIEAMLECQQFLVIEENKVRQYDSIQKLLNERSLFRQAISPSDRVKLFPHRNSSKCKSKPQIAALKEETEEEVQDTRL

SMILES | % Activation (ΔF508-CFTR [1]; [3]) [%] | EC50 (ΔF508-CFTR [1]; [4]) [µM] | % Activation (ΔF508-CFTR [2]; [5]) [%] | EC50 (ΔF508-CFTR [2]; [6]) [µM] | EC50 (ΔF508-CFTR [1]) [µM] | EC50 (ΔF508-CFTR [2]) [µM]
CCCN(CC)S(=O)(=O)NC(=O)c1cc(OCC2CCOCC2)c2c(C3CCC3)nn(-c3ccccc3)c2n1 [Compound 355, 3-cyclobutyl-N-[ethyl(propyl)sulfamoyl]-4-[(oxan-4-yl)methoxy]-1-phenyl-1H-pyrazolo[3,4-b]pyridine-6-carboxamide] | 102.4 | 0.161 | 278.4 | 0.377 |  | 
CCOC(=O)N1CCC(NS(=O)(=O)NC(=O)c2cc(OCC3CCOCC3)c3c(C4CCC4)nn(-c4ccccc4)c3n2)CC1 [Compound 356, ethyl 4-[({3-cyclobutyl-4-[(oxan-4-yl)methoxy]-1-phenyl-1H-pyrazolo[3,4-b]pyridine-6-carbonyl}sulfamoyl)amino]piperidine-1-carboxylate] | 188.25 | 0.105 | 372 | 0.0483 |  | 
CC(=O)N1CCCN(S(=O)(=O)NC(=O)c2cc(OCC3CCOCC3)c3c(C4CCC4)nn(-c4ccccc4)c3n2)CC1 [Compound 357, N-(4-acetyl-1,4-diazepane-1-sulfonyl)-3-cyclobutyl-4-[(oxan-4-yl)methoxy]-1-phenyl-1H-pyrazolo[3,4-b]pyridine-6-carboxamide] | 72.83 | 0.115 | 229.8 | 0.13 |  | 
COCC1CCN(c2cc(C(=O)NS(=O)(=O)CCO)nc3c2c(C2CCC2)nn3-c2ccccc2)CC1 [Compound 366, 3-cyclobutyl-N-(2-hydroxyethanesulfonyl)-4-[4-(methoxymethyl)piperidin-1-yl]-1-phenyl-1H-pyrazolo[3,4-b]pyridine-6-carboxamide] | 264 | 0.298 | 443.7 | 0.0827 |  | 
COCC1CCN(c2cc(C(=O)NS(=O)(=O)CCCO)nc3c2c(C2CCC2)nn3-c2ccccc2)CC1 [Compound 367, 3-cyclobutyl-N-(3-hydroxypropane-1-sulfonyl)-4-[4-(methoxymethyl)piperidin-1-yl]-1-phenyl-1H-pyrazolo[3,4-b]pyridine-6-carboxamide] | 364.5 | 0.311 | 526.17 | 0.0816 |  | 
COCC1CCN(c2cc(C(=O)NS(=O)(=O)C3CCNCC3)nc3c2c(C2CCC2)nn3-c2ccccc2)CC1 [Compound 368, 3-cyclobutyl-4-[4-(methoxymethyl)piperidin-1-yl]-1-phenyl-N-(piperidine-4-sulfonyl)-1H-pyrazolo[3,4-b]pyridine-6-carboxamide] | 185 | 1.36 | 350.23 | 0.361 |  | 
CS(=O)(=O)NC(=O)c1cc(N2CCS(=O)(=O)CC2)c2c(C3CCC3)nn(-c3ccccc3)c2n1 [Compound 371, 3-cyclobutyl-4-(1,1-dioxo-1λ^6,4-thiazinan-4-yl)-N-(methanesulfonyl)-1-phenyl-1H-pyrazolo[3,4-b]pyridine-6-carboxamide] | 121.3 | 2.74 | 271.9 | 1.93 |  | 
COCC1CCN(c2cc(C(=O)NS(=O)(=O)CCNC(=O)OCc3ccccc3)nc3c2c(C2CCC2)nn3-c2ccccc2)CC1 [Compound 373, benzyl [2-({3-cyclobutyl-4-[4-(methoxymethyl)piperidin-1-yl]-1-phenyl-1H-pyrazolo[3,4-b]pyridine-6-carbonyl}sulfamoyl)ethyl]carbamate] | 368.2 | 0.073 | 580.5 | 0.0858 |  | 
COCC1CCN(c2cc(C(=O)NS(=O)(=O)C3(C)CC3)nc3c2c(C2CCC2)nn3-c2ccccc2)CC1 [Compound 374, 3-cyclobutyl-4-[4-(methoxymethyl)piperidin-1-yl]-N-(1-methylcyclopropane-1-sulfonyl)-1-phenyl-1H-pyrazolo[3,4-b]pyridine-6-carboxamide] | 240.7 | 0.254 | 426.05 | 0.196 |  | 
COCC1CCN(c2cc(C(=O)NS(=O)(=O)CC(C)C)nc3c2c(C2CCC2)nn3-c2ccccc2)CC1 [Compound 375, 3-cyclobutyl-4-[4-(methoxymethyl)piperidin-1-yl]-N-(2-methylpropane-1-sulfonyl)-1-phenyl-1H-pyrazolo[3,4-b]pyridine-6-carboxamide] | 321.6 | 0.571 | 546.75 | 0.241 |  | 
COCC1CCN(c2cc(C(=O)NS(=O)(=O)CC(=O)OC)nc3c2c(C2CCC2)nn3-c2ccccc2)CC1 [Compound 376, methyl ({3-cyclobutyl-4-[4-(methoxymethyl)piperidin-1-yl]-1-phenyl-1H-pyrazolo[3,4-b]pyridine-6-carbonyl}sulfamoyl)acetate] | 355.7 | 0.117 | 496.8 | 0.0516 |  | 
COCC1CCN(c2cc(C(=O)NS(=O)(=O)C3CCN(C(=O)OCc4ccccc4)C3)nc3c2c(C2CCC2)nn3-c2ccccc2)CC1 (stereo not shown) [Compound 377, benzyl 3-({3-cyclobutyl-4-[4-(methoxymethyl)piperidin-1-yl]-1-phenyl-1H-pyrazolo[3,4-b]pyridine-6-carbonyl}sulfamoyl)pyrrolidine-1-carboxylate] | 261.3 | 0.129 | 485.55 | 0.103 |  | 
CC(C)c1nn(-c2ccc(F)cc2)c2nc(C(=O)NS(C)(=O)=O)cc(C3CCN(C(=O)OC(C)(C)C)CC3)c12 [Compound 378, tert-butyl 4-[1-(4-fluorophenyl)-6-[(methanesulfonyl)carbamoyl]-3-(propan-2-yl)-1H-pyrazolo[3,4-b]pyridin-4-yl]piperidine-1-carboxylate] | 160 | 1.33 | 318.6 | 0.658 |  | 
O=C(NS(=O)(=O)N1CCOCC1)c1cc(N2CCC(CN3CCCC3)CC2)c2c(C3CCC3)nn(-c3ccccc3)c2n1 [Compound 380, 3-cyclobutyl-N-(morpholine-4-sulfonyl)-1-phenyl-4-{4-[(pyrrolidin-1-yl)methyl]piperidin-1-yl}-1H-pyrazolo[3,4-b]pyridine-6-carboxamide] | 131.7 |  | 309.17 |  | 0.279 | 0.127
O=C(NS(=O)(=O)N1CCOCC1)c1cc(N2CCC(N3CCOCC3)CC2)c2c(C3CCC3)nn(-c3ccccc3)c2n1 [Compound 383, 3-cyclobutyl-N-(morpholine-4-sulfonyl)-4-[4-(morpholin-4-yl)piperidin-1-yl]-1-phenyl-1H-pyrazolo[3,4-b]pyridine-6-carboxamide] | 202.9 |  | 412.20 |  |  | 
COCC1CCN(c2cc(C(=O)NS(=O)(=O)CC(N)=O)nc3c2c(C2CCC2)nn3-c2ccccc2)CC1 [Compound 384, N-(2-amino-2-oxoethanesulfonyl)-3-cyclobutyl-4-[4-(methoxymethyl)piperidin-1-yl]-1-phenyl-1H-pyrazolo[3,4-b]pyridine-6-carboxamide] | 228 | 2.86 | 391.35 | 1.44 |  | 
COCC1CCN(c2cc(C(=O)NS(=O)(=O)CCNC(C)=O)nc3c2c(C2CCC2)nn3-c2ccccc2)CC1 [Compound 386, N-(2-acetamidoethanesulfonyl)-3-cyclobutyl-4-[4-(methoxymethyl)piperidin-1-yl]-1-phenyl-1H-pyrazolo[3,4-b]pyridine-6-] | 237.85 | 2.12 | 385.05 | 0.685 |  | 
COCC1CCN(c2cc(C(=O)NS(=O)(=O)C3CCNC3)nc3c2c(C2CCC2)nn3-c2ccccc2)CC1 (stereo not shown) [Compound 387, 3-cyclobutyl-4-[4-(methoxymethyl)piperidin-1-yl]-1-phenyl-N-(pyrrolidine-3-sulfonyl)-1H-pyrazolo[3,4-b]pyridine-6-carboxamide] | 60.58 | 0.462 | 168.9 | 0.161 |  | 
COCC1CCN(c2cc(C(=O)NS(=O)(=O)N3CCC(N4CCCC4)CC3)nc3c2c(C2CCC2)nn3-c2ccccc2)CC1 [Compound 388, 3-cyclobutyl-4-[4-(methoxymethyl)piperidin-1-yl]-1-phenyl-N-[4-(pyrrolidin-1-yl)piperidine-1-sulfonyl]-1H-pyrazolo[3,4-b]pyridine-6-carboxamide] | 192.8 |  | 364.5 |  | 0.218 | 0.196
COCC1CCN(c2cc(C(=O)NS(=O)(=O)N3CCC[C@H]3C(=O)N3CCN(C)CC3)nc3c2c(C2CCC2)nn3-c2ccccc2)CC1 [Compound 389, 3-cyclobutyl-4-[4-(methoxymethyl)piperidin-1-yl]-N-[(2S)-2-(4-methylpiperazine-1-carbonyl)pyrrolidine-1-sulfonyl]-1-phenyl-1H-pyrazolo[3,4-b]pyridine-6-carboxamide] | 165 | 0.556 | 305.1 | 0.297 |  | 
COCC1CCN(c2cc(C(=O)NS(=O)(=O)N3CCC(N4CCC[C@H]4COC)CC3)nc3c2c(C2CCC2)nn3-c2ccccc2)CC1 [Compound 390, 3-cyclobutyl-4-[4-(methoxymethyl)piperidin-1-yl]-N-{4-[(2S)-2-(methoxymethyl)pyrrolidin-1-yl]piperidine-1-sulfonyl}-1-phenyl-1H-pyrazolo[3,4-b]pyridine-6-carboxamide] | 188.2 | 0.177 | 350.17 | 0.14 |  | 

From patent US10259810B2, “N-sulfonylated pyrazolo[3,4-b]pyridin-6-carboxamides and method of use” (AbbVie S.à.r.l., priority 2015, dated 2019)
